Experimental data from patent US20250282770A1, “BIOLUMINESCENT PROBES TO TRACK STEM CELLS IN VIVO” (THE BOARD OF TRUSTEES OF THE UNIVERSITY OF ILLINOIS, priority 2024, published 2025).

Assays:
ALDH1A1 = molecular target: T1, ALDH1A1 (Homo sapiens, UniProt P00352); assay: Logic-gate activation of AlDeLuc by acid, ALDH1A1 and luciferase; dose dependence; type: biochemical
T1 construct: inferred from Ni-NTA purification; made in house; host or cells: E. coli BL21(DE3)
T1 sequence (P00352 1-501): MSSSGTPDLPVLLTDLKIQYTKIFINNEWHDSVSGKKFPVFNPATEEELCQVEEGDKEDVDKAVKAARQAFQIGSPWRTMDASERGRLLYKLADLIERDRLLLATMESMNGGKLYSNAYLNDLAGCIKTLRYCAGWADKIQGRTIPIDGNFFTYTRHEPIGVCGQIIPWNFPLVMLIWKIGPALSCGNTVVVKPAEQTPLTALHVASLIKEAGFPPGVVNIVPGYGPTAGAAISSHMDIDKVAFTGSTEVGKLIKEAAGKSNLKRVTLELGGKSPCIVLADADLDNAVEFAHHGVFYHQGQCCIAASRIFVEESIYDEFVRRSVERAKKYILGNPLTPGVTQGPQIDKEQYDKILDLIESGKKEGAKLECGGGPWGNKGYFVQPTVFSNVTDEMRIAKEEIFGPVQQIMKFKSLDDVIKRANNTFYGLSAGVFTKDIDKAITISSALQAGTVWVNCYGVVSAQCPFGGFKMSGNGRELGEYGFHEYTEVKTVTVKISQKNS
Procedure: Dose-dependent Enhancement of AlDeLuc. The response of ALDH1A1 (0.4 μM) against different concentrations of AlDeLuc was measured in a black 96-well plate and was monitored using the IVIS imaging system. Various stocks of AlDeLuc were generated so that 20 μL of the probe solution gave the desired concentration. Stocks were prepared by the following: AlDeLuc was first dissolved in DMSO followed by a 60 minute incubation in equal volume 1 M HCl. Subsequently, the reaction was neutralized with 1 M NaOH and diluted with PBS. To a black 96-well plate, TEA buffer (pH 7.4), NAD^+ (2.5 mM), and either […], 5 μM, 10 μM, or 50 μM of AlDeLuc was added. After 60 minutes, each well was treated with ATP-MgSO4 (45 μL, prepared by mixing 17.78 mM ATP-Mg and 35.56 mM MgSO4 in a 1:1 ratio in PBS buffer) and luciferase (5 μL, 1 mg/mL in PBS containing 10% glycerol) to initiate bioluminescence production. Light was collected immediately after mixing, and the signal enhancement was determined relative to control wells not treated with enzymes. The total volume of each well was 200 μL (TEA (pH 7.4) with 0.2% DMSO). All data reported as the mean±standard deviation (n=4).
Dose-dependent Activation of AlDeLuc by ALDH1A1. The response of AlDeLuc (5 μM) against different concentrations of ALDH1A1 was measured in a black 96-well plate and was monitored using the IVIS imaging system. To a black 96-well plate, PBS (pH 7.4), NAD^+, and either 0.05 μM, 0.1 μM, 0.4 μM, 2 μM, or 4 μM of ALDH1A1, was added AlDeLuc. Immediately after, each well was treated with ATP-MgSO4 (45 μL, prepared by mixing 17.78 mM ATP-Mg and 35.56 mM MgSO4 in a 1:1 ratio in PBS buffer) and luciferase (5 μL, 1 mg/mL in PBS containing 10% glycerol) to initiate bioluminescence production. Light was collected immediately after mixing, and the signal enhancement was determined relative to control wells not treated with enzymes. The total volume of each well was 200 μL (PBS (pH 7.4) with 0.2% DMSO). All data reported as the mean standard deviation (n=3).

rat liver microsomes = assay: Stability of AlDeLuc to rat liver microsomes; type: in vitro ADME; conditions: 2 μM; RLM 0.25 to 5.0 ng/mL; NADPH; 37° C.
Procedure: Investigating the Stability of AlDeLuc to Rat Liver Microsomes. The stability of AlDeLuc (2 μM) in rat liver microsomes (RLM) was measured in a black 96-well plate and was monitored using the IVIS imaging system. To Eppendorf tubes containing potassium phosphate buffer (0.1 M, pH 7.4), RLM (0.25 ng/mL or 5 ng/mL), and AlDeLuc (2 μM) was added NADPH (50 μM in potassium phosphate buffer) and incubated at 37° C. for 15 minutes. In parallel, Eppendorf tubes with potassium phosphate buffer (0.1 M, pH 7.4), ALDH1A1 (0.4 μM), NAD^+ (1 mM), and AlDeLuc (2 μM, activated with acid) were warmed at 37° C. for 15 minutes. The solutions were transported to the laboratory housing the IVIS imaging system (˜10 minutes), transferred to a 96-well plate, and immediately administered ATP-MgSO4 (45 μL, prepared by mixing 17.78 mM ATP-Mg and 35.56 mM MgSO4 in a 1:1 ratio in PBS buffer) and luciferase (5 μL, 1 mg/mL in PBS containing 10% glycerol) to initiate bioluminescence production. Light was collected immediately after mixing, and the total luminescent counts were collected in each condition. The total volume of each well was 200 μL with 0.2% DMSO. All data reported as the mean±standard deviation (n=4).

CCN(CC)c1ccc2nc(C3=N[C@@H](C(OC)OC)CS3)sc2c1 [AlDeLuc, (S)-2-(4-(dimethoxymethyl)-4,5-dihydrothiazol-2-yl)-N,N-diethylbenzo[d]thiazol-6-amine]
signal intensity versus amount of ALDH1A1 (ALDH1A1; AlDeLuc 5 μM, ALDH1A1 0 to 4 μM): highest ALDH1A1 concentration showed the most intense signal
signal intensity versus AlDeLuc concentration (ALDH1A1; AlDeLuc 2 to 50 μM, ALDH1A1 0.4 μM): concentration-dependent increase
bioluminescent signal when acidic conditions and ALDH1A1 applied separately, compared to both (ALDH1A1; luciferase 0.02 mg/mL): significantly attenuated
bioluminescence after incubation with rat liver microsomes (rat liver microsomes): negligible bioluminescence
